# Patent EP4279069A1, “A PHARMACEUTICAL COMPOSITION FOR USE IN PREVENTING AND/OR REDUCING HEPATOTOXICITY INDUCED BY ACETAMINOPHEN” (priority 2022, dated 2023)
# Several values for one entry are separate records, joined by “and”; a condition that tells them apart may be missing. Identical values can stand only once.
# Experiments:
# [1] = system: acetaminophen-induced acute liver injury; assay: Assessment of acute hepatotoxicity: serum biomarkers of liver injury (ALAT, ASAT), spectrophotometric assay; conditions: for ALAT / ASAT: i.p., 24h after treatment, individual mice
# Procedure: 192 male mice CD-1 (Janvier, France) (12 mice per group) with an age of 7-10 weeks were used. They received the products intraperitoneally (i.p.).
# Determination of serum biomarkers: Liver injury was evaluated by measuring the serum levels of alanine aminotransferase (ALAT), and aspartate aminotransferase (ASAT) using a spectrophotometric assay method.
# (§1) Protocol: 24h after treatments, animals were euthanized. Plasma and liver were sampled.
# Statistical analysis: Results were expressed as means ± standard error of mean (S.E.M.).
# [2] = system: rats; assay: Toxicology of acetaminophen and/or nefopam: ALAT and ASAT by UV test according to IFCC recommendations; conditions: for ALAT / ASAT: after 4 weeks, mean, groups 2, 3, 5: P 505 for 4 days then 645 for 24 days and/or N 30 for 4 days then 38.6 for 24 days (mg/kg/day); for transaminase levels: rats, substance alone, after 4 weeks of treatment, statement in text
# Procedure: Liver function in rats is measured and the progression of liver damage is monitored to screen for liver disease in invasive and non-invasive manner. Alanine aminotransferase (ALAT) and aspartate aminotransferase (ASAT), two markers of hepatotoxicity was assayed using UV test according to IFCC recommendations.
# Control animals (group 1) received the vehicle only (1% Tween 80 in 0.5% Methylcellulose in water).
# [3] = system: acetaminophen-induced acute liver injury; assay: Assessment of acute hepatotoxicity: histopathological assessment of liver lesions (H&E, necrosis grade); assay type: in vivo, mice CD-1
# Procedure: They received the products intraperitoneally (i.p.).
# Histopathological assessment of liver lesions: The histopathological lesions in the liver were evaluated as follows: The collected tissues were processed with standard procedures and embedded in paraffin. The embedded tissues were sectioned into 4 µm thick sections using a microtome. These tissue sections were stained with hematoxylin and eosin (H&E) according to standard techniques and examined by a light microscope.
# The severity of necrotic lesions in liver parenchyma was determined. Grade 0: No pathological change Grade 1: Presence of degenerated hepatocytes with only rare foci of necrosis Grade 2: Small area of mild centrilobular necrosis around the central vein Grade 3: Area of mild centrilobular necrosis severer than Grade 2 Grade 4: Centrilobular necrosis severer than Grade 3
# as §1
# [4] = cited from earlier work
# [5] = median value; cited from earlier work
# [6] = Vehicle + 1.1 mg/kg nefopam, 1.1 mg/kg
# [7] = Vehicle + 2.2 mg/kg nefopam, 2.2 mg/kg
# [8] = Vehicle + 4.4 mg/kg nefopam, 4.4 mg/kg
# [9] = nefopam at doses of 17.65 and 35.29 mg/kg (i.p.) co-administered with acetaminophen, mice
# [10] = Vehicle + 200 mg/kg NAC, 200 mg/kg
structure (smiles),measurement,setting,value
"CN1CCOC(c2ccccc2)c2ccccc2C1 (stereo not shown) [nefopam, 5-methyl-1-phenyl-1,3,4,6-tetrahydro-2,5-benzoxazo-cine]",ALAT,[1]; [6],17 U/L and 29 U/L and 55 U/L (2×) and 51 U/L and 23 U/L and 31 U/L and 45 U/L and 19 U/L and 49 U/L and 27 U/L and 28 U/L
same,ASAT,[1]; [6],98 U/L and 266 U/L and 180 U/L and 152 U/L and 193 U/L and 181 U/L and 136 U/L and 426 U/L and 110 U/L and 97 U/L and 210 U/L
same,ALAT,[1]; [7],30 U/L (2×) and 19 U/L (2×) and 52 U/L and 152 U/L and 24 U/L and 27 U/L and 35 U/L and 60 U/L and 57 U/L and 25 U/L
same,ASAT,[1]; [7],111 U/L and 395 U/L and 59 U/L and 325 U/L and 119 U/L and 118 U/L and 221 U/L and 129 U/L and 269 U/L and 785 U/L and 148 U/L
same,ALAT,[1]; [8],55 U/L and 25 U/L and 22 U/L and 43 U/L (2×) and 51 U/L and 26 U/L and 28 U/L and 42 U/L and 24 U/L and 71 U/L and 23 U/L
same,ASAT,[1]; [8],541 U/L and 128 U/L and 111 U/L and 93 U/L and 151 U/L and 79 U/L and 89 U/L and 531 U/L and 71 U/L and 466 U/L
same,acetaminophen-induced hepatotoxicity,"[1]; co-administered with acetaminophen 300 mg/kg i.p., mice",able to abolish acetaminophen-induced hepatotoxicity
same,ASAT and ALAT plasma concentration,"[1]; mouse, in vivo",did not influence
same,ASAT and ALAT elevations,[1]; [9],significantly reduced
same,ALAT,[2]; female rats,31 U/L
same,ASAT,[2]; female rats,96 U/L
same,ALAT,[2]; male rats,35 U/L
same,ASAT,[2]; male rats,83 U/L
same,histological score,"[3]; mouse, in vivo",0
same,histological score,[3]; [9],significantly reduced
"CC(=O)Nc1ccc(O)cc1 [Acetaminophen, N-acetyl-p-aminophenol]",half-life,[4]; individuals without liver injury,2 to 3 h
same,bioavailability (drug being absorbed),[4]; taken orally,~80%
same,metabolized through the activity of CYPs (primarily CYP2E) to N-acetyl-p-benzoquinoneimine (NAPQI),[4]; therapeutic doses,≤ 5%
same,median effective analgesic dose,[5],500 mg
same,ALAT,[2]; female rats,49 U/L
same,ASAT,[2]; female rats,101 U/L
same,ALAT,[2]; male rats,59 U/L
same,ASAT,[2]; male rats,110 U/L
same,transaminase levels,[2],increases transaminase levels
same,transaminase levels,[2]; listed as acetaminophen,increase in transaminase levels
"CC(=O)N[C@@H](CS)C(=O)O [NAC, N-acetylcysteine]",ALAT,[1]; [10],41 U/L (2×) and 26 U/L and 27 U/L and 30 U/L and 58 U/L and 31 U/L and 28 U/L and 14 U/L and 29 U/L and 71 U/L and 51 U/L
same,ASAT,[1]; [10],292 U/L and 101 U/L and 114 U/L and 184 U/L and 320 U/L and 160 U/L and 360 U/L and 107 U/L and 283 U/L and 723 U/L and 170 U/L and 183 U/L
same,Score,"[3]; Vehicle + 200 mg/kg NAC, i.p., 24h after treatment, individual mice",0
